Consider 15 compounds from US20260176260A1, “DUAL RAF AND TUBULIN INHIBITORS AND METHODS OF USE THEREOF” (Deciphera Pharmaceuticals, LLC, priority 2023, published 2026).

The subject of one experiment is HPAF-II cells. The experiment is described as follows: HPAF-II cell proliferation assay (resazurin). Type of experiment: cell-based. The following applies: Homo sapiens; Table 2, inhibition of cell proliferation; read-out: HPAF-II. Here is the method: (§1) HPAF-II cells (catalog #CRL-1997) are obtained from the American Type Culture Collect (ATCC, Manassas, VA). Briefly, cells are grown in Minimum Essential Media supplemented with 10% characterized fetal bovine serum (Invitrogen, Carlsbad, CA) and 1% Penicillin/Streptomycin/L-Glutamine at 37° C., 5% CO2, and 95% humidity. Cells are expanded until reaching 70-95% confluency at which point they are sub-cultured or harvested for assay use. A serial dilution of test compound is dispensed into a 384-well black clear bottom plate in triplicate. 750 cells are added per well in 50 μL complete growth medium in the 384-well plate. Plates are incubated for 115 to 120 h at 37° C., 5% CO2, and 95% humidity. At the end of the incubation, 40 μL of a […] solution of resazurin (Sigma, St. Louis, MO) in PBS is added to each well of the plate and plates are incubated for an additional 18 to 24 h at 37° C., 5% CO2, and 95% humidity. Plates are read on a Synergy2 or equivalent reader (Biotek, Winooski, VT) using an excitation of 540 nm and an emission of 600 nm. Data is analyzed using Prism software (Graphpad, San Diego, CA) to calculate IC50 values.
A general note: Resazurin is reduced to fluorescent resorufin, in cell work by metabolically active cells.

The target of the next experiment is T1, C-Raf kinase (Homo sapiens, UniProt P04049, Y340D/Y341D).
T1 construct: C-Raf residues 306-end; Y340D, Y341D with N-; purchased Sigma
T1 sequence (P04049 307-648 Y340D/Y341D): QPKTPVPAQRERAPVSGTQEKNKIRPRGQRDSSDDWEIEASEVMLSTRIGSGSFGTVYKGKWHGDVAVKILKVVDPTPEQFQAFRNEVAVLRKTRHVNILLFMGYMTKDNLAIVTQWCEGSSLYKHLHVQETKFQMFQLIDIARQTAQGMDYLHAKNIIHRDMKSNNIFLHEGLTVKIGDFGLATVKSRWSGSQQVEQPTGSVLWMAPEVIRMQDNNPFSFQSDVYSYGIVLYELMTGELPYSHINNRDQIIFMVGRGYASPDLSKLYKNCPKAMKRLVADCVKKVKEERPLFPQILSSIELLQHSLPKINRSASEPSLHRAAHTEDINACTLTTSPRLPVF
The experiment is described as follows: Biochemical assay for C-Raf (coupled pyruvate kinase/lactate dehydrogenase). To be noted: Table 1, inhibition of biochemical activity; read-out: CRAF.

For a further experiment, the system named is Pa16c cells. The experiment is described as follows: Pa16c cell proliferation assay (resazurin). The following applies: Table 2, inhibition of cell proliferation. Type of experiment: cell-based. Here is the method:
as §1, with “Pa16c” for “HPAF-II”, “cells” for “cells (catalog #CRL-1997)”, “Dr. Channing Der, University of North Carolina at Chapel Hill.” for “the American Type Culture Collect (ATCC, Manassas, VA).”, “Dulbecco's Modified Eagle Medium” for “Minimum Essential Media”, “67” for “115”, “72” for “120”

Another experiment concerns HCT-116 cells. The experiment can be described thus: HCT-116 cell proliferation assay (resazurin). It is filed as cell-based. The following applies: Homo sapiens; Table 2, inhibition of cell proliferation; read-out: HCT-116. As for the experimental part: HCT-116 cells (catalog #CCL-247) are obtained from the American Type Culture Collect (ATCC, Manassas, VA). Briefly, cells are grown in McCoy's 5A supplemented with 10% characterized fetal bovine serum (Invitrogen, Carlsbad, CA) and 1% Penicillin/Streptomycin/L-Glutamine at 37° C., 5% CO2, and 95% humidity. Cells are expanded until reaching 70-95% confluency at which point they are sub-cultured or harvested for assay use. A serial dilution of test compound is dispensed into a 384-well black clear bottom plate in triplicate. 375 cells are added per well in 50 μL complete growth medium in the 384-well plate. Plates are incubated for 67 to 72 h at 37° C., 5% CO2, and 95% humidity. At the end of the incubation, 40 μL of a […] solution of resazurin (Sigma, St. Louis, MO) in PBS is added to each well of the plate and plates are incubated for an additional 4 to 5 h at 37° C., 5% CO2, and 95% humidity. Plates are read on a Synergy2 or equivalent reader (Biotek, Winooski, VT) using an excitation of 540 nm and an emission of 600 nm. Data is analyzed using Prism software (Graphpad, San Diego, CA) to calculate IC50 values.

In the next experiment the test system is MiaPaca-2 cells. The experiment is described as follows: MiaPaca-2 cell proliferation assay (resazurin). Type of experiment: cell-based. To be noted: Homo sapiens, MIA PaCa-2; Table 2, inhibition of cell proliferation; read-out: MiaPaca-2. As for the experimental part: MiaPaca-2 cells (catalog #CRL-1420) are obtained from the American Type Culture Collect (ATTC, Manassas, VA). Briefly, cells were grown in DMVEM supplemented with […] fetal bovine serum (Invitrogen, Carlsbad, CA), 2.5% New Zealand sourced horse serum and 1% Penicillin/Streptomycin/L-Glutamine at 37° C., […], and […]. Cells are expanded until reaching […] at which point they are sub-cultured or harvested for assay use. For assays completed in 96-well plates, a serial dilution of test compound is dispensed into a 96-well black clear bottom plate in triplicate. Three thousand cells are added per well in 200 μL complete growth medium in the 96-well plate. Plates are incubated for 67 to 72 h at 37° C., 5% CO2, and 95% humidity. At the end of the incubation, 40 μL of a […] solution of resazurin (Sigma, St. Louis, MO) in PBS is added to each well of the plate and plates are incubated for an additional 5 to 6 h at 37° C., 5% CO2, and 95% humidity. For 384-well assays, a threefold, 8-point serial dilution of compound was spotted column wise into a 384 well black, clear bottom, tissue culture treated plate using the Beckman Coulter Echo 650. Likewise, a threefold, 8-point serial dilution of cobimetinib was spotted row wise into the 384 well black, clear bottom plate containing compound. DMSO concentration was constant across all wells at 0.4%. Seven hundred fifty cells are added per well in 50 μL complete growth medium in each 384-well plate. Plates are incubated for 67 to 72 h at 37° C., 5% CO2, and 95% humidity. At the end of the incubation, 10 μL of a 440 μM solution of resazurin (Sigma, St. Louis, MO) in PBS is added to each well of the plate and plates are incubated for an additional 4 to 6 h at 37° C., 5% CO2, and 95% humidity. Plates are read on a Synergy2 or equivalent reader (Biotek, Winooski VT) using an excitation of 540 nm and an emission of 600 nm. Data is analyzed using Prism software (Graphpad, San Diego, CA) to calculate IC50 values.

The target in the next experiment is T2, B-Raf kinase (Homo sapiens, UniProt P15056).
T2 construct: purchased Sigma
T2 sequence (P15056 416-766): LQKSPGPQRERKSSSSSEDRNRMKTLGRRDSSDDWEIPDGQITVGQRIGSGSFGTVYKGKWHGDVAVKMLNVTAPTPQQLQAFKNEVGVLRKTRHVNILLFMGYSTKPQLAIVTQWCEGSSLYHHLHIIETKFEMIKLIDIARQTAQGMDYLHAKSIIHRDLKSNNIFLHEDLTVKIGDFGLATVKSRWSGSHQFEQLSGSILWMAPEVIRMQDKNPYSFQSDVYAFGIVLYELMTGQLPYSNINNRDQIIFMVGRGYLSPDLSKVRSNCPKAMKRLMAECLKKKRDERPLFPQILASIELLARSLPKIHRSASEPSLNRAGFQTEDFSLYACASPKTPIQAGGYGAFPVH
The experiment can be described thus: Biochemical assay for B-Raf (coupled pyruvate kinase/lactate dehydrogenase). The following applies: Table 1, inhibition of biochemical activity; read-out: BRAF.

pIC50: −log10 of the molar value. Bounds are passed on as bounds.

On to `CNC(=O)c1cc(-c2cc(-c3cc(NC(=O)c4cnc(C(F)(F)F)nc4)ccc3C)ccn2)ccn1` [Example 41], for which the pIC50 in the experiment with HPAF-II cells is 6.30 to 7.00; on C-Raf kinase it was 5.00 to 6.00; with Pa16c cells, 6.30 to 7.00; in the experiment on HCT-116 cells, 6.30 to 7.00; in the experiment on MiaPaca-2 cells, 6.00 to 6.30; on B-Raf kinase, 5.00 to 6.00.
As for `CNC(=O)c1cc(-c2cc(NCCO)nc(-c3cc(NC(=O)c4cc(C(F)(F)F)cnn4)ccc3C)n2)ccn1` [Example 33], the pIC50 in the experiment on HPAF-II cells is 5.00 to 6.00; at C-Raf kinase, greater than 7.00; in the experiment on Pa16c cells, 5.00 to 6.00; with HCT-116 cells, 5.00 to 6.00; in the experiment on MiaPaca-2 cells, 5.00 to 6.00; at B-Raf kinase it was 6.30 to 7.00.
On to `CNC(=O)c1cc(-c2cc(-c3cc(NC(=O)c4cc(Cl)cnn4)ccc3C)ccn2)ccn1` [Example 36], for which the pIC50 in the experiment on HPAF-II cells is 5.00 to 6.00; at C-Raf kinase, greater than 7.00; in the experiment with Pa16c cells, 5.00 to 6.00; in the experiment with HCT-116 cells, 6.00 to 6.30; with MiaPaca-2 cells it was 6.00 to 6.30; at B-Raf kinase it was 6.30 to 7.00.
On to `CNC(=O)c1cc(-c2cc(-c3cc(NC(=O)c4cc(C(F)(F)F)cnn4)ccc3C)cc(OCCO)n2)ccn1` [Example 35], for which the pIC50 was 6.30 to 7.00 in the experiment with HPAF-II cells; greater than 7.00 on C-Raf kinase; 6.30 to 7.00 in the experiment on Pa16c cells; 6.30 to 7.00 in the experiment with HCT-116 cells; 6.30 to 7.00 with MiaPaca-2 cells; greater than 7.00 at B-Raf kinase.
On to `CNC(=O)c1cc(-c2cc(-c3cc(NC(=O)c4cc(C5CC5)cnn4)ccc3C)nc(NCCO)n2)ccn1` [Example 8], for which the pIC50 was 5.00 to 6.00 in the experiment with HPAF-II cells; greater than 7.00 on C-Raf kinase; 5.00 to 6.00 in the experiment on Pa16c cells; 6.30 to 7.00 in the experiment on HCT-116 cells; 6.00 to 6.30 in the experiment on MiaPaca-2 cells; greater than 7.00 on B-Raf kinase.
As to `Cc1ccc(NC(=O)c2cc(C(F)(F)F)cnn2)cc1-c1ccnc(-c2ccnc(C(N)=O)c2)c1` [Example 3, 4-(2-methyl-5-(5-(trifluoromethyl)pyridazine-3-carboxamido)phenyl)-[2,4′-bipyridine]-2′-carboxamide], the pIC50 was 6.30 to 7.00 in the experiment on HPAF-II cells; greater than 7.00 at C-Raf kinase; greater than 7.00 with Pa16c cells; greater than 7.00 with HCT-116 cells; greater than 7.00 in the experiment with MiaPaca-2 cells; greater than 7.00 at B-Raf kinase.
As to `CNC(=O)c1cc(-c2cc(-c3cc(NC(=O)c4cncc(C(F)(F)F)c4)ccc3C)ccn2)ccn1` [Example 12], the pIC50 in the experiment with HPAF-II cells is 5.00 to 6.00; on C-Raf kinase, greater than 7.00; in the experiment with Pa16c cells, 5.00 to 6.00; in the experiment with HCT-116 cells it was 5.00 to 6.00; with MiaPaca-2 cells it was 5.00 to 6.00; on B-Raf kinase it was greater than 7.00.
For the compound `CNC(=O)c1cc(-c2cc(-c3cc(NC(=N)c4cc(C(F)(F)F)cnn4)ccc3C)ccn2)ccn1` [Example 20], the pIC50 is 5.00 to 6.00 with HPAF-II cells; 6.30 to 7.00 on C-Raf kinase; 5.00 to 6.00 with Pa16c cells; 5.00 to 6.00 in the experiment with HCT-116 cells; 5.00 to 6.00 in the experiment on MiaPaca-2 cells; 6.00 to 6.30 on B-Raf kinase.
On to `CNC(=O)c1cc(-c2cc(-c3cc(NC(=O)c4cc(C5CC5)cnn4)ccc3C)cc(N[C@H](C)CO)n2)ccn1` [Example 32], for which the pIC50 with HPAF-II cells was 6.30 to 7.00; at C-Raf kinase, greater than 7.00; in the experiment with Pa16c cells, 6.30 to 7.00; with HCT-116 cells, 6.30 to 7.00; in the experiment on MiaPaca-2 cells, 6.30 to 7.00; at B-Raf kinase, greater than 7.00.
Turning to `CNC(=O)c1cc(-c2cc(-c3cc(NC(=O)c4cc(C(F)(F)F)cnn4)ccc3C)cc(N)n2)ccn1` [Example 48], the pIC50 is 6.30 to 7.00 in the experiment with HPAF-II cells; greater than 7.00 at C-Raf kinase; 5.00 to 6.00 with Pa16c cells; 6.30 to 7.00 in the experiment on HCT-116 cells; 6.00 to 6.30 in the experiment on MiaPaca-2 cells; greater than 7.00 on B-Raf kinase.
`CNC(=O)c1cc(-c2cncc(-c3cc(NC(=O)c4cc(C5CC5)cnn4)ccc3C)c2)ncn1` [Example 24]: the pIC50 with HPAF-II cells was 5.00 to 6.00; on C-Raf kinase, greater than 7.00; with Pa16c cells, 5.00 to 6.00; in the experiment with HCT-116 cells, 5.00 to 6.00; in the experiment with MiaPaca-2 cells, 5.00 to 6.00; on B-Raf kinase it was greater than 7.00.
`CNC(=O)c1cc(-c2cc(-c3cc(NC(=O)c4cc(C(C)(F)F)cnn4)ccc3C)cc(NCCO)n2)ccn1` [Example 42]: the pIC50 in the experiment with HPAF-II cells is 6.30 to 7.00; on C-Raf kinase it was greater than 7.00; with Pa16c cells, 6.30 to 7.00; in the experiment on HCT-116 cells, greater than 7.00; with MiaPaca-2 cells, greater than 7.00; at B-Raf kinase it was greater than 7.00.
`CNC(=O)c1cc(-c2cc(-c3cc(NC(=O)c4cc(C(F)(F)F)cnn4)ccc3C)nc(N[C@H](C)CO)n2)ccn1` [Example 25]: the pIC50 in the experiment with HPAF-II cells was 6.30 to 7.00; on C-Raf kinase, greater than 7.00; in the experiment with Pa16c cells it was 5.00 to 6.00; in the experiment on HCT-116 cells, 6.30 to 7.00; in the experiment with MiaPaca-2 cells it was 6.30 to 7.00; at B-Raf kinase it was greater than 7.00.
For `CNC(=O)c1cc(-c2cncc(-c3cc(NC(=O)c4cc(C#N)cnn4)ccc3C)c2)ccn1` [Example 46], the pIC50 in the experiment with HPAF-II cells was 5.00 to 6.00; on C-Raf kinase it was 6.30 to 7.00; in the experiment with Pa16c cells, 5.00 to 6.00; in the experiment with HCT-116 cells, 6.00 to 6.30; in the experiment with MiaPaca-2 cells it was 5.00 to 6.00; at B-Raf kinase, 6.30 to 7.00.
For `CNC(=O)c1cc(-c2cc(N[C@H](C)CO)nc(-c3cc(NC(=O)c4cc(C(F)(F)F)cnn4)ccc3C)n2)ccn1` [Example 39], the pIC50 in the experiment on HPAF-II cells is 5.00 to 6.00; on C-Raf kinase it was 6.30 to 7.00; with Pa16c cells, 5.00 to 6.00; in the experiment with HCT-116 cells, 5.00 to 6.00; in the experiment on MiaPaca-2 cells, 5.00 to 6.00; on B-Raf kinase, 6.30 to 7.00.
